# Results reported in PubChem BioAssay AID1259407 (Chemical Carcinogenesis Research Information System (CCRIS), 2018).
# Active and inactive are the calls of the source. How the calls were made is not given here.
# System: CCRIS mutagenicity, Ames/micronucleus/aberration tests
# Assay: CCRIS mutagenicity studies
# Settings: Test System: AMES SALMONELLA TYPHIMURIUM
# [1] = Strain/Indicator: TA97, Metabolic Activation: NONE, Method: PREINCUBATION
# [2] = Strain/Indicator: TA98, Metabolic Activation: NONE, Method: PREINCUBATION
# [3] = Strain/Indicator: TA100, Metabolic Activation: NONE, Method: PREINCUBATION
smiles,measurement,setting,value
Nc1cc(S(=O)(=O)O)ccc1O,mutagenic call,"Strain/Indicator: TA97, Metabolic Activation: HAMSTER, LIVER, S-9, AROCLOR 1254 (10 OR 30%), Method: PREINCUBATION",inactive; negative
same,mutagenic call,[1],inactive; negative
same,mutagenic call,"Strain/Indicator: TA97, Metabolic Activation: RAT, LIVER, S-9, AROCLOR 1254 (10 OR 30%), Method: PREINCUBATION",inactive; negative
same,mutagenic call,"Strain/Indicator: TA98, Metabolic Activation: HAMSTER, LIVER, S-9, AROCLOR 1254 (10 OR 30%), Method: PREINCUBATION",inactive; negative
same,mutagenic call,[2],inactive; negative
same,mutagenic call,"Strain/Indicator: TA98, Metabolic Activation: RAT, LIVER, S-9, AROCLOR 1254 (10 OR 30%), Method: PREINCUBATION",inactive; negative
same,mutagenic call,"Strain/Indicator: TA100, Metabolic Activation: HAMSTER, LIVER, S-9, AROCLOR 1254 (10 OR 30%), Method: PREINCUBATION",inactive; negative
same,mutagenic call,[3],inactive; negative
same,mutagenic call,"Strain/Indicator: TA100, Metabolic Activation: RAT, LIVER, S-9 AROCLOR 1254 (10 OR 30%), Method: PREINCUBATION",inactive; negative
same,mutagenic call,"Strain/Indicator: TA1535, Metabolic Activation: HAMSTER, LIVER, S-9, AROCLOR 1254 (10 OR 30%), Method: PREINCUBATION",inactive; negative
same,mutagenic call,"Strain/Indicator: TA1535, Metabolic Activation: NONE, Method: PREINCUBATION",inactive; negative
same,mutagenic call,"Strain/Indicator: TA1535, Metabolic Activation: RAT, LIVER, S-9, AROCLOR 1254 (10 OR 30%), Method: PREINCUBATION",inactive; negative
CC(=O)NO,mutagenic call,"Strain/Indicator: TA98, Metabolic Activation: NONE, Method: STANDARD PLATE",active; positive
same,mutagenic call,"Strain/Indicator: TA98, Metabolic Activation: RAT, LIVER, S-9, Method: STANDARD PLATE",active; positive
same,mutagenic call,"Strain/Indicator: TA100, Metabolic Activation: RAT, LIVER, S-9, Method: STANDARD PLATE",inactive; negative
CC(=O)Nc1ccc(/C=N/n2nnc3c([nH]c4ccccc43)c2=O)cc1,mutagenic call,[1],active; positive
same,mutagenic call,"Strain/Indicator: TA97, Metabolic Activation: RAT, LIVER, S-9, AROCLOR 1254 (10%), Method: PREINCUBATION",active; positive
same,mutagenic call,[2],active; positive
same,mutagenic call,"Strain/Indicator: TA98, Metabolic Activation: RAT, LIVER, S-9, AROCLOR 1254 (10%), Method: PREINCUBATION",active; positive
same,mutagenic call,[3],active; positive
same,mutagenic call,"Strain/Indicator: TA100, Metabolic Activation: RAT, LIVER, S-9, AROCLOR 1254 (10%), Method: PREINCUBATION",active; positive
same,mutagenic call,"Strain/Indicator: TA102, Metabolic Activation: NONE, Method: PREINCUBATION",inactive; negative
same,mutagenic call,"Strain/Indicator: TA102, Metabolic Activation: RAT, LIVER, S-9, AROCLOR 1254 (10%), Method: PREINCUBATION",inactive; negative
O=S(=O)(O)c1ccc2cc(O)c(S(=O)(=O)O)cc2c1,mutagenic call,[2],inactive; negative
same,mutagenic call,"Strain/Indicator: TA98, Metabolic Activation: RAT, LIVER, S-9, PHENOBARBITAL, Method: PREINCUBATION",inactive; negative
same,mutagenic call,[3],inactive; negative
same,mutagenic call,"Strain/Indicator: TA100, Metabolic Activation: RAT, LIVER, S-9, PHENOBARBITAL, Method: PREINCUBATION",inactive; negative
